Reference: US20170119907A1, “Targeted Therapeutics” (MEDIVATION TECHNOLOGIES, INC., priority 2014, published 2017)

Legend:
human MSCs [1] = experiment: Binding to and staining of human MSCs; format: cell-based; settings: photomicrographs, FIG. 4A
human MSCs [2] = experiment: Human MSC proliferation, CELLTITER GLO assay (ATP levels); format: cell-based; settings: 24 h, various concentrations, compared with untreated cells; FIG. 3A
Method: This example reports the effects of 24 hour treatment with Compound 4 on viability and proliferation of human MSCs.
Cell proliferation was measured using the CELLTITER GLO® assay (Promega), which measures ATP levels. Cells (5×10^5) were incubated with various concentrations of Compound 4 for 24 h. Proliferation was compared to that of untreated cells. Proliferation values for 24 h were normalized to time=0 and compared with values for untreated cells.

ARH-77 cells = experiment: Binding to ARH-77 cells (fluorescence staining); format: cell-based; settings: 10 μM, 30 min; 530 nm/600 nm filter set; FIG. 2A
Method: ARH-77 cells (an EBV-transformed B lymphoblastoid cell line established from cells of a patient with plasma cell leukemia) were incubated as indicated with PBS or 10 μM Compound 4 for 30 min. Cells were washed twice with 1 mL PBS, and staining was detected using a 530 nm/600 nm filter set on a Molecular Imaging Gel Logic system.

[3] = tested on: partial thickness chondral defects in the medial femoral condyle; experiment: Chondral defect model, retention of Compound 4-augmented MSCs (histological cell retention score); format: in vivo, sheep; settings: for Cell Retention (average score, n = 5): score 0-2
Method: The capacity of ovine MSCs derived from bone marrow and augmented with Compound 4 to bind to lesions in cartilage in vivo was evaluated in a chondral defect model.
Bone marrow aspirate was collected from fifteen healthy nave female sheep and processed in vitro to attain a population of mesenchymal stem cells (MSCs) for each sheep created by expansion of adherent cells. MSCs were frozen at passage 1 (P1).
Two circular partial thickness chondral defects were surgically created bilaterally in the medial femoral condyle of each sheep, thereby creating four defects per sheep. Once the medial femoral condyle was surgically exposed, two partial thickness circular defects were created in the cartilage of the anterior aspect, separated by 2-3 mm. Each defect was created by penetrating the cartilage with a 7 mm diameter biopsy punch to delineate the margins followed by removal of cartilage within the defect margin with a scalpel to a depth of approximately 0.5 mm-0.8 mm without penetrating the surface of the calcified cartilage. Within the same animal, each defect received one of four experimental treatments: • a. D1: Empty Control: defect left unfilled; • b. D2: Vehicle Control: cells incubated in PBS delivered to the defect; • c. D3: 100 μM Compound 4 incubated in defect followed by delivery of cells to the defect; and • d. D4: Cells were incubated with 10 μM Compound 4 for 30 min and together they were delivered to defect.
Sheep were divided into three groups of 5 sheep. One group was sacrificed on day 1 after surgery, the second group was sacrificed on day 7, and the third group was sacrificed on day 14 after surgery.
The complete intact joint was harvested and transported to the laboratory. The joint was exposed, and defects were scored macroscopically prior to separating out bone blocks containing the defects with a band saw. Defects were further trimmed and individually separated using a fine ISOMET® saw prior to fixation in 10% neutral buffered formalin. Tissue was further trimmed for histological processing, fixed, and decalcified for at least one week.
As each sample completed decalcification, it was transferred to 40% EtOH until all samples were decalcified and the last sample had been in 40% EtOH for at least 24 hours.
Following decalcification, specimens were prepared for histology staining with safranin-orange, fast green and haematoxylin-eosin.
Histological Assessment of Compound 4-Augmented Cell Retention
Histological slides were stained with Haematoxylin & Eosin and Safranin Orange for evaluation of cell retention and the early stages of cartilage repair. Cell retention was assessed using the following scoring system: […]

Raji cells = experiment: Raji cell viability, trypan blue staining; format: cell-based; settings: times and concentrations tested (at or below 20 μM), FIG. 3C
Method: Cell viability was measured by using trypan blue to stain dead cells. Cells (2×10^5) were incubated with various concentrations of Compound 4 for 30 min, and viable cells were counted and compared to the number of viable cells in an untreated sample. Values for treated cells were normalized to untreated cells.
In a similar fashion to Example B2a, Compound 20 was assessed for its effect on viability of Raji cells as determined by trypan blue staining, as described in Example B2a.

[4] = tested on: articular cartilage degeneration (MIA model); experiment: Monosodium iodoacetate (MIA) model of articular cartilage degeneration, compound-incubated hMSCs; format: in vivo, Sprague Dawley rats; settings: rat MIA 3 mg intra-articular; 4×10^5 hMSCs incubated in 10 μM compound injected day 7; evaluated day 28; FIG. 7
Method: 6 to 8 week old Sprague Dawley rats were anesthetized with 3% sevofluorane and injected in both the right and left knee intra-articularly with MIA (monosodium iodoacetate, Sigma Cat No I2512) at a dose of 3 mg in a volume of 50 pt. MIA was dissolved in sterile saline (0.9%). hMSCs (Lonza, Cat No PT-2501) were cultured in complete MSCCM™ mesenchymal stem cell culture medium (Lonza, Cat No PT-3238).
Seven days after the injection of MIA, 2-10 million hMSCs were collected and incubated for 20 min in 500 μL of 10 μM Compound 20 in PBS or in PBS alone (untreated). Cells were washed with PBS and counted.
Rats were again anesthetized with 3% sevofluorane. 4×10^5 hMSCs incubated in PBS or in Compound 20 were injected intraarticularly through the patellar ligament. Untreated hMSC were injected into the left knee joint, and Compound 20-stained hMSCs were injected into the right knee joint.
Twenty eight days after the injection of MIA, rats were euthanized, and femoral condyles were extracted for macroscopic evaluation.

SMILES | binding to and staining of human MSCs (human MSCs [1]) | Effect on human MSC proliferation (human MSCs [2]) | binding to ARH-77 cells (ARH-77 cells) | Cell Retention (average score, n = 5) ([3]; D3: 100 μM incubated in defect followed by delivery of cells, Day 1) | Cell Retention (average score, n = 5) ([3]; D3: 100 μM incubated in defect followed by delivery of cells, Day 7) | Cell Retention (average score, n = 5) ([3]; D3: 100 μM incubated in defect followed by delivery of cells, Day 14) | Cell Retention (average score, n = 5) ([3]; D4: cells pre-incubated with 10 μM for 30 min, then delivered to defect, Day 1) | Cell Retention (average score, n = 5) ([3]; D4: cells pre-incubated with 10 μM for 30 min, then delivered to defect, Day 7) | Cell Retention (average score, n = 5) ([3]; D4: cells pre-incubated with 10 μM for 30 min, then delivered to defect, Day 14) | MSC retention (in words) ([3]; sheep chondral defect model, summary of Table B9) | Toxic effects on Raji cells (viability) (Raji cells) | Macroscopic evaluation of femoral condyle cartilage [4]
Cc1cc2nc3cc(C)c(NCCCCCCCCNc4cc5c(cc4C)nc4cc(C)c(N)cc4[n+]5-c4ccccc4)cc3[n+](-c3ccccc3)c2cc1N.[Cl-].[Cl-] [Compound 4, 7,7′-(octane-1,8-diylbis(azanediyl))bis(3-amino-2,8-dimethyl-5-phenylphenazin-5-ium) chloride] | binds to and stains | does not affect human MSC proliferation | binds to ARH-77 cells | 0.75 | 0.75 | 1.2 | 0.4 | 1.0 | 1.25 | promotes MSC retention | – | –
Cc1cc2nc3cc(C)c(NCCCCCCNC(=O)c4ccc(-c5ccc(C(=O)NCCCCCCNc6cc7c(cc6C)nc6cc(C)c(N)cc6[n+]7-c6ccccc6)cc5)cc4)cc3[n+](-c3ccccc3)c2cc1N.[Cl-].[Cl-] [Compound 20, (3-amino-7-{[6-({4-[4-({6-[(7-amino-5-chloranuide-2,8-dimethyl-5-phenyl-5λ^6,10-phenazin-5-ylium-3-yl)amino]hexyl}carbamoyl)phenyl]phenyl}formamido)hexyl]amino}-2,8-dimethyl-5-phenyl-5λ^6,10-phenazin-5-ylium-5-e)chloranuide] | – | – | – | – | – | – | – | – | – | – | did not have toxic effects | an improvement in the cartilage and surrounding bone area
